In ChEMBL document CHEMBL4507307 (2021):
Blank lines part the entries; values can stand above or below the compound they belong to.

What was measured:
[1] = target: Serine/threonine-protein kinase Chk2 (Homo sapiens) (UniProt O96017); assay: CHEK2 (CHK2) Kinase activity screen
[2] = target: Aurora kinase B (Homo sapiens) (UniProt Q96GD4); assay: AURKB (Aurora B) Kinase activity screen
[3] = target: Hepatocyte growth factor receptor (Homo sapiens) (UniProt P08581); assay: MET (cMet) Kinase activity screen; conditions: Compound concentration 1.0 uM
[4] = target: Serine/threonine-protein kinase B-raf (Homo sapiens) (UniProt P15056); assay: BRAF Kinase activity screen
Chain of Serine/threonine-protein kinase B-raf (Homo sapiens) (P15056 whole entry): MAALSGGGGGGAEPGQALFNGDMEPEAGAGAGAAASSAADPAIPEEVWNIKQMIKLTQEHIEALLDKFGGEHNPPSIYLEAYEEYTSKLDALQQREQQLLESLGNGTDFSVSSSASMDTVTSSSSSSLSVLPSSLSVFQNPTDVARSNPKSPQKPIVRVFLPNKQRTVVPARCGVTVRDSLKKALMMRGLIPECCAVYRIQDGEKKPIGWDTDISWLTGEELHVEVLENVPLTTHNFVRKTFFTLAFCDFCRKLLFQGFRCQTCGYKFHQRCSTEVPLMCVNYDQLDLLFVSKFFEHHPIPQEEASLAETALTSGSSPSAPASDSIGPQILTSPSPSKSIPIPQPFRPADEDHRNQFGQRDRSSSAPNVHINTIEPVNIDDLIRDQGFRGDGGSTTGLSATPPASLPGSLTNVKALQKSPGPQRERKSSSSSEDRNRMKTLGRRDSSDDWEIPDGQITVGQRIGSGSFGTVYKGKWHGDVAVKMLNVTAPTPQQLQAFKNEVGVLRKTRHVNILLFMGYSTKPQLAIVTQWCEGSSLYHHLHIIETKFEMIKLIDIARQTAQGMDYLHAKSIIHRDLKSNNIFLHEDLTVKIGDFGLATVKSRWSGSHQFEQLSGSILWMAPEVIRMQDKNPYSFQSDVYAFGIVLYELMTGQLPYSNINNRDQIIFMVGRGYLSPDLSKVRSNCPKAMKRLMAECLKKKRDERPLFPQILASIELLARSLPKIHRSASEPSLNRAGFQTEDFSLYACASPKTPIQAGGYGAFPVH

[5] = target: Serine/threonine-protein kinase PLK1 (Homo sapiens) (UniProt P53350); assay: PLK1 Kinase activity screen
Chain of Serine/threonine-protein kinase PLK1 (Homo sapiens) (P53350 whole entry): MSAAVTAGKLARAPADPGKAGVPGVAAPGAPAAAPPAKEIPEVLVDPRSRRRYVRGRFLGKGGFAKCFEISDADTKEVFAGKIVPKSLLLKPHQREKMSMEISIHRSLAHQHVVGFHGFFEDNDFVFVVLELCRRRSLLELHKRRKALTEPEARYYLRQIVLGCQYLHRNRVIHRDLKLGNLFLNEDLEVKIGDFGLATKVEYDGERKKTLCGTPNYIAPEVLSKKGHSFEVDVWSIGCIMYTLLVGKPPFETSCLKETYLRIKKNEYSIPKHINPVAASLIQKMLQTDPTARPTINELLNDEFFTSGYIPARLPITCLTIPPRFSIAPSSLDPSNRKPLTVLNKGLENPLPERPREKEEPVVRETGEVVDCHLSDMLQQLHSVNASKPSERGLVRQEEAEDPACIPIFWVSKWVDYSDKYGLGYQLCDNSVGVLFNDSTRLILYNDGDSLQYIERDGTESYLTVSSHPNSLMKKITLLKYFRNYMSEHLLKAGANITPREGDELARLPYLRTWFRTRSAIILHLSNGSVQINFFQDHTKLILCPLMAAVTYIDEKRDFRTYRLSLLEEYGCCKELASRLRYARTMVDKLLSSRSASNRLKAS

[6] = target: Focal adhesion kinase 1 (Homo sapiens) (UniProt Q05397); assay: PTK2 (FAK) Kinase activity screen
Chain of Focal adhesion kinase 1 (Homo sapiens) (Q05397 2-1052 limits assumed): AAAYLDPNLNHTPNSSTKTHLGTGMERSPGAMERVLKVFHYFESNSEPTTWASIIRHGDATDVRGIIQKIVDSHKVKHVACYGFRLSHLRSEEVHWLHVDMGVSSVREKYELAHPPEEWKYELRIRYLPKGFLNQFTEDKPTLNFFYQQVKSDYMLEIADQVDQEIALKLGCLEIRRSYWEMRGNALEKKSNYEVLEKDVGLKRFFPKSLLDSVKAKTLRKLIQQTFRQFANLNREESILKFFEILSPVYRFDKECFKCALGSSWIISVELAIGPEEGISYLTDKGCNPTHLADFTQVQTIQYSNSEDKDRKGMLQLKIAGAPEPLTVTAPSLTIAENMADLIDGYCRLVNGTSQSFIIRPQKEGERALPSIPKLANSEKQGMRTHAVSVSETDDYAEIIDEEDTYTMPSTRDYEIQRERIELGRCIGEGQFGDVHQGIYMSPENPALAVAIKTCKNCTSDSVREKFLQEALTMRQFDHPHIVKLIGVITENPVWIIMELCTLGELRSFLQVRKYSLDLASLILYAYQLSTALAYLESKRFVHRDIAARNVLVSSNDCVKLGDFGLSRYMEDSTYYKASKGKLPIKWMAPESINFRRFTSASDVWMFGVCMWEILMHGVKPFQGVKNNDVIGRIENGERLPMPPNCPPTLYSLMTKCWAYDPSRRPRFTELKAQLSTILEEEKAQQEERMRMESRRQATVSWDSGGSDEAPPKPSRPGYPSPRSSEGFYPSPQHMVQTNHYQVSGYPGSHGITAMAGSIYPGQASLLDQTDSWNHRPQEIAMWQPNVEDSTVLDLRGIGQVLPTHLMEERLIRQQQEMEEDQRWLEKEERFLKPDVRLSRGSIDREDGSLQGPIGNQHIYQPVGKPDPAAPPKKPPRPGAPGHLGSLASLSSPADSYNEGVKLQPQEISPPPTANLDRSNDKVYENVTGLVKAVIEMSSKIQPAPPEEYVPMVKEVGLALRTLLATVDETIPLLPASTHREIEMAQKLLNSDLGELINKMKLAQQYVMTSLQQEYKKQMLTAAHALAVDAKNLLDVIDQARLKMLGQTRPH

[7] = target: Mitogen-activated protein kinase 14 (Homo sapiens) (UniProt Q16539); assay: MAPK14 (p38 alpha) Kinase activity screen
Chain of Mitogen-activated protein kinase 14 (Homo sapiens) (Q16539 whole entry): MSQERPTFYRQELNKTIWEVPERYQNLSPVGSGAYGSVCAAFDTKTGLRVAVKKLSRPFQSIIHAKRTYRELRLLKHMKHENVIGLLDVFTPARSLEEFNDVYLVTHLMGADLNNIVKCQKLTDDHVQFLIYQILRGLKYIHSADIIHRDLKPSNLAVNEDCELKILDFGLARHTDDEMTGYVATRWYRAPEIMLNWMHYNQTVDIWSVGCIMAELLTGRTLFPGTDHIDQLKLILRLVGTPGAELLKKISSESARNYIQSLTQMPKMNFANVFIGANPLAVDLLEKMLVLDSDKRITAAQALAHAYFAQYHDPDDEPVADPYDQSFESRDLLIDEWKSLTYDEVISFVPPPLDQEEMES

[8] = target: Ephrin type-A receptor 5 (Homo sapiens) (UniProt P54756); assay: EPHA5 Kinase activity screen
Chain of Ephrin type-A receptor 5 (Homo sapiens) (P54756 whole entry): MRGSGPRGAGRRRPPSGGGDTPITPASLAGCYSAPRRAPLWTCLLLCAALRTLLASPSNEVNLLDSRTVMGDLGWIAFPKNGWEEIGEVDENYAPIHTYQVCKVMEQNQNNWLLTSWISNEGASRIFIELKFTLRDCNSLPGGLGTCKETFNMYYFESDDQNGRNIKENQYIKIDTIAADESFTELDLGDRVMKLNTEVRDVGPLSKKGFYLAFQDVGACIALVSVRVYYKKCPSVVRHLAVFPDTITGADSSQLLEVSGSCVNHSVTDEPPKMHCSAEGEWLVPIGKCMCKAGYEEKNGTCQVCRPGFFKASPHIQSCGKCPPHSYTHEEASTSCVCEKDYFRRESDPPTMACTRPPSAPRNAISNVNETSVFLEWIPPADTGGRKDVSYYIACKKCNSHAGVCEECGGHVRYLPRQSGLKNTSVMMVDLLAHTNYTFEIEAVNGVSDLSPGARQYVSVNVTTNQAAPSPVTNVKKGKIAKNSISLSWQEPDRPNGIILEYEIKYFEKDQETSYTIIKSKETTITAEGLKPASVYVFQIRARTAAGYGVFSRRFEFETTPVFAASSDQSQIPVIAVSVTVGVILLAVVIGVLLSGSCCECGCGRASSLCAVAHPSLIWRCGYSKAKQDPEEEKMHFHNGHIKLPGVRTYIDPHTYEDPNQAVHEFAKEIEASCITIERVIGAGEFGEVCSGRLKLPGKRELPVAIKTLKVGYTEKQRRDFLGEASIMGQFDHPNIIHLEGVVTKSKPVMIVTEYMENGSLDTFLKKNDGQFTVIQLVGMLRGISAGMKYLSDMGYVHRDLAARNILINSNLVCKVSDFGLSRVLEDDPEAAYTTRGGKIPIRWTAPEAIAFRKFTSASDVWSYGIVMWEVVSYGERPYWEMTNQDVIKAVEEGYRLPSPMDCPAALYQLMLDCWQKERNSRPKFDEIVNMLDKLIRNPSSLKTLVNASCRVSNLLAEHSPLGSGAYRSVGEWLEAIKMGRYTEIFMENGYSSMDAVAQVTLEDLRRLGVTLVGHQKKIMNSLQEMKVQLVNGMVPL

[9] = target: Serine/threonine-protein kinase Chk1 (Homo sapiens) (UniProt O14757); assay: CHEK1 (CHK1) Kinase activity screen
Chain of Serine/threonine-protein kinase Chk1 (Homo sapiens) (O14757 whole entry): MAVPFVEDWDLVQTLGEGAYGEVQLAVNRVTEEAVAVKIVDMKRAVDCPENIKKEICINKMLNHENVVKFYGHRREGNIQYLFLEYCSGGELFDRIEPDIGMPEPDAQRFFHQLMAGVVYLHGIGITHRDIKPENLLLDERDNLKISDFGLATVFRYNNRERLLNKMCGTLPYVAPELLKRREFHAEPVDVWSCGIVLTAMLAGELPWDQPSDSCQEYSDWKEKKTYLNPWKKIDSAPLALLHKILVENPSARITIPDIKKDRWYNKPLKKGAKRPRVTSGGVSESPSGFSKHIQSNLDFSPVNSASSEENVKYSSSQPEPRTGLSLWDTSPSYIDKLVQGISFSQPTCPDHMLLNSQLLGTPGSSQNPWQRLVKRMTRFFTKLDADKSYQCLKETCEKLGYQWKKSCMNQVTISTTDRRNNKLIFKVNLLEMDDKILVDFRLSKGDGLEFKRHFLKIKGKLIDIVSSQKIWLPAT

[10] = target: Serine/threonine-protein kinase Nek2 (Homo sapiens) (UniProt P51955); assay: NEK2 Kinase activity screen
[11] = target: Mitogen-activated protein kinase 1 (Homo sapiens) (UniProt P28482); assay: MAPK1 (ERK2) Kinase activity screen
Chain of Mitogen-activated protein kinase 1 (Homo sapiens) (P28482 whole entry): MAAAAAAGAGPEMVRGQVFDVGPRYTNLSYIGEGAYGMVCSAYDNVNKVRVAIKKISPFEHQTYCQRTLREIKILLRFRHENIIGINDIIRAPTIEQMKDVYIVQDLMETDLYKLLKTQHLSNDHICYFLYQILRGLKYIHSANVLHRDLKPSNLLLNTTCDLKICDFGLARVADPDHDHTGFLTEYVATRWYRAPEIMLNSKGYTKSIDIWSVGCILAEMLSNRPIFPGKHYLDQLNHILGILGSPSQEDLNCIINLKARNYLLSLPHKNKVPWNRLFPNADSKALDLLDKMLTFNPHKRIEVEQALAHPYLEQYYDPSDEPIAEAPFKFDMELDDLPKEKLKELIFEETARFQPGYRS

[12] = target: Calcium/calmodulin-dependent protein kinase type 1 (Homo sapiens) (UniProt Q14012); assay: CAMK1 (CaMK1) Kinase activity screen
Chain of Calcium/calmodulin-dependent protein kinase type 1 (Homo sapiens) (Q14012 whole entry, looked up): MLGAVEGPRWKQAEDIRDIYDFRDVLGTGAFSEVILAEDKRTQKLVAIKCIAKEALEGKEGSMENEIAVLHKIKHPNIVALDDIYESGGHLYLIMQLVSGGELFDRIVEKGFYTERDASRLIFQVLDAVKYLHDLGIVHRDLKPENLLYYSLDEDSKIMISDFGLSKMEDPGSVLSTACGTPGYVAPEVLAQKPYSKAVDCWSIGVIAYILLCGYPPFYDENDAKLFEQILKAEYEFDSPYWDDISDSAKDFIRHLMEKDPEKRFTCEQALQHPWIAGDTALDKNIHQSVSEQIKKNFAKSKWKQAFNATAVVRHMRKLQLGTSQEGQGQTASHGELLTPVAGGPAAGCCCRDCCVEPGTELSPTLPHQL

[13] = target: 5-hydroxytryptamine receptor 1A (Homo sapiens, UniProt P08908); assay: GPCRScan assay: inhibition of 5-HT1A; parameters: radioligand conc. used [nm] 0.5 – 1.0, parental cells stable CHO
Rattus norvegicus = species: Rattus norvegicus; conditions: Compound concentration 10.0 uM
Mu-type opioid receptor = Mu-type opioid receptor (Homo sapiens, UniProt P35372); assay: GPCRScan assay: inhibition of MOR; parameters: radioligand conc. used [nm] 1.0 – 2.0, parental cells stable HEK
[14] = target: Alpha-1D adrenergic receptor (Homo sapiens) (UniProt P25100); conditions: Compound concentration 10.0 uM
[15] = target: Sigma non-opioid intracellular receptor 1 (Homo sapiens, UniProt Q99720); assay: GPCRScan assay: inhibition of Sigma 1; parameters: radioligand conc. used [nm] 4.0 – 5.0, parental cells HEKT

inhibition ([1]; Compound concentration 0.1 uM): 21.9% | inhibition ([1]; Compound concentration 1.0 uM): 24.2% | inhibition ([2]; Compound concentration 0.1 uM): 6.77% | inhibition ([2]; Compound concentration 1.0 uM): 16.1% | inhibition [3]: -7.39% | inhibition ([4]; Compound concentration 0.1 uM): 8.71% | inhibition ([4]; Compound concentration 1.0 uM): 17.2% | inhibition ([5]; Compound concentration 0.1 uM): 7.85% | inhibition ([5]; Compound concentration 1.0 uM): 2.48% | inhibition ([6]; Compound concentration 0.1 uM): -9.12% | inhibition ([6]; Compound concentration 1.0 uM): -7.35% | inhibition ([7]; Compound concentration 0.1 uM): 4.88% | inhibition ([7]; Compound concentration 1.0 uM): 6.39% | inhibition ([8]; Compound concentration 0.1 uM): -5.79% | inhibition ([8]; Compound concentration 1.0 uM): -4.96% | inhibition ([9]; Compound concentration 0.1 uM): 9.74% | inhibition ([9]; Compound concentration 1.0 uM): 18.4% | inhibition ([10]; Compound concentration 0.1 uM): 11.9% | inhibition ([10]; Compound concentration 1.0 uM): 24.3% | inhibition ([11]; Compound concentration 0.1 uM): 2.74% | inhibition ([11]; Compound concentration 1.0 uM): 4.01% | inhibition ([12]; Compound concentration 0.1 uM): 7.14% | inhibition ([12]; Compound concentration 1.0 uM): 5.32%
Compound: CN1CCN(C(=O)C(C)(C)c2ccc(C(=O)Nc3cn4cc(-c5ccncc5)ccc4n3)cc2)CC1 [T3-CLK]

Ki [13]: 2560 nM | inhibition (Rattus norvegicus): -6.1% | Ki (Mu-type opioid receptor): 4020 nM | inhibition [14]: 57% | Ki ([15]; read-out: Ki): 798 nM | Ki ([15]; read-out: pKi (converted)): 741 nM
Compound: CN1CCN(C(=O)C(C)(C)c2ccc(C(=O)Nc3cn4cc(-c5cc(C(C)(C)C)cc(C(C)(C)C)c5)ccc4n3)cc2)CC1 [T3-CLK-N]
